Key:
[1] = human gut metagenome, 24 h, 2 µM
[2] = The drug is tested on Z-010 corresponding to metagenome with ENA study accession number: PRJEB37062 and ENA sample accession number: ERS12561810 for biotransformation under anaerobic condition. The drug concentrations were measured over 9 timepoints collected between 0 and 24 hours of incubation by liquid-chromatography-coupled mass spectrometry (LC–MS); settings: 2 µM
[3] = human gut metagenome, 24 h, 2 µM; remark: listed apart in the source
[4] = The drug is tested on WLS-086 corresponding to human gut metagenome with ENA study accession number: PRJEB37062 and ENA sample accession number: ERS12561752 for biotransformation under anaerobic condition. The drug concentrations were measured over 9 timepoints collected between 0 and 24 hours of incubation by liquid-chromatography-coupled mass spectrometry (LC–MS); settings: 2 µM
[5] = The drug is tested on WLS-069 corresponding to human gut metagenome with ENA study accession number: PRJEB37062 and ENA sample accession number: ERS12561748 for biotransformation under anaerobic condition. The drug concentrations were measured over 9 timepoints collected between 0 and 24 hours of incubation by liquid-chromatography-coupled mass spectrometry (LC–MS); settings: 2 µM
[6] = human gut metagenome, 24 h, 2 µM; remark: listed apart in the source
[7] = The drug is tested on WLS-007 corresponding to human gut metagenome with ENA study accession number: PRJEB37062 and ENA sample accession number: ERS12561742 for biotransformation under anaerobic condition. The drug concentrations were measured over 9 timepoints collected between 0 and 24 hours of incubation by liquid-chromatography-coupled mass spectrometry (LC–MS); settings: 2 µM
[8] = The drug is tested on Z-020 corresponding to rabbit gut metagenome with ENA study accession number: PRJEB37062 and ENA sample accession number: ERS12561819 for biotransformation under anaerobic condition. The drug concentrations were measured over 9 timepoints collected between 0 and 24 hours of incubation by liquid-chromatography-coupled mass spectrometry (LC–MS); settings: 2 µM
[9] = The drug is tested on Z-019 corresponding to rat gut metagenome with ENA study accession number: PRJEB37062 and ENA sample accession number: ERS12561818 for biotransformation under anaerobic condition. The drug concentrations were measured over 9 timepoints collected between 0 and 24 hours of incubation by liquid-chromatography-coupled mass spectrometry (LC–MS); settings: 2 µM
[10] = human gut metagenome, 24 h, 2 µM; remark: listed apart in the source
[11] = The drug is tested on Z-027 corresponding to metagenome with ENA study accession number: PRJEB37062 and ENA sample accession number: ERS12561826 for biotransformation under anaerobic condition. The drug concentrations were measured over 9 timepoints collected between 0 and 24 hours of incubation by liquid-chromatography-coupled mass spectrometry (LC–MS); settings: 2 µM
[12] = The drug is tested on WLS-052 corresponding to human gut metagenome with ENA study accession number: PRJEB37062 and ENA sample accession number: ERS12561747 for biotransformation under anaerobic condition. The drug concentrations were measured over 9 timepoints collected between 0 and 24 hours of incubation by liquid-chromatography-coupled mass spectrometry (LC–MS); settings: 2 µM
[13] = human gut metagenome, 24 h, 2 µM; remark: listed apart in the source
[14] = The drug is tested on Z-008 corresponding to metagenome with ENA study accession number: PRJEB37062 and ENA sample accession number: ERS12561808 for biotransformation under anaerobic condition. The drug concentrations were measured over 9 timepoints collected between 0 and 24 hours of incubation by liquid-chromatography-coupled mass spectrometry (LC–MS); settings: 2 µM
[15] = The drug is tested on Z-003 corresponding to pig gut metagenome with ENA study accession number: PRJEB37062 and ENA sample accession number: ERS12561803 for biotransformation under anaerobic condition. The drug concentrations were measured over 9 timepoints collected between 0 and 24 hours of incubation by liquid-chromatography-coupled mass spectrometry (LC–MS); settings: 2 µM
[16] = The drug is tested on Z-002 corresponding to rabbit gut metagenome with ENA study accession number: PRJEB37062 and ENA sample accession number: ERS12561802 for biotransformation under anaerobic condition. The drug concentrations were measured over 9 timepoints collected between 0 and 24 hours of incubation by liquid-chromatography-coupled mass spectrometry (LC–MS); settings: 2 µM
[17] = The drug is tested on Z-014 corresponding to rat gut metagenome with ENA study accession number: PRJEB37062 and ENA sample accession number: ERS12561814 for biotransformation under anaerobic condition. The drug concentrations were measured over 9 timepoints collected between 0 and 24 hours of incubation by liquid-chromatography-coupled mass spectrometry (LC–MS); settings: 2 µM
[18] = human gut metagenome, 24 h, 2 µM; remark: listed apart in the source
[19] = human gut metagenome, 24 h, 2 µM; remark: listed apart in the source
[20] = The drug is tested on Z-023 corresponding to metagenome with ENA study accession number: PRJEB37062 and ENA sample accession number: ERS12561822 for biotransformation under anaerobic condition. The drug concentrations were measured over 9 timepoints collected between 0 and 24 hours of incubation by liquid-chromatography-coupled mass spectrometry (LC–MS); settings: 2 µM
Also: call rule not given here.

SMILES | Bacterial Biotransformation [1] | Bacterial Biotransformation [2] | Bacterial Biotransformation [3] | Bacterial Biotransformation [4] | Bacterial Biotransformation [5] | Bacterial Biotransformation [6] | Bacterial Biotransformation [7] | Bacterial Biotransformation [8] | Bacterial Biotransformation [9] | Bacterial Biotransformation [10] | Bacterial Biotransformation [11] | Bacterial Biotransformation [12] | Bacterial Biotransformation [13] | Bacterial Biotransformation [14] | Bacterial Biotransformation [15] | Bacterial Biotransformation [16] | Bacterial Biotransformation [17] | Bacterial Biotransformation [18] | Bacterial Biotransformation [19] | Bacterial Biotransformation [20]
CC(=O)CCCCn1c(=O)c2c(ncn2C)n(C)c1=O [PENTOXIFYLLINE] | Compound NOT metabolized | Compound NOT metabolized | Compound metabolized | Compound metabolized | Compound NOT metabolized | Compound NOT metabolized | Compound NOT metabolized | Compound NOT metabolized | Compound NOT metabolized | Compound metabolized | Compound NOT metabolized | Compound NOT metabolized | Compound NOT metabolized | Compound NOT metabolized | Compound NOT metabolized | Compound NOT metabolized | Compound NOT metabolized | Compound NOT metabolized | Compound NOT metabolized | Compound NOT metabolized
Cc1cc(C)cc(OCC2CNC(=O)O2)c1 (stereo not given) [METAXALONE] | Compound NOT metabolized | Compound NOT metabolized | Compound metabolized | Compound metabolized | Compound metabolized | Compound metabolized | Compound metabolized | Compound NOT metabolized | Compound NOT metabolized | Compound metabolized | Compound metabolized | Compound metabolized | Compound metabolized | Compound NOT metabolized | Compound NOT metabolized | Compound NOT metabolized | Compound NOT metabolized | Compound NOT metabolized | Compound metabolized | Compound NOT metabolized
OCCN(CCO)c1nc(N2CCCCC2)c2nc(N(CCO)CCO)nc(N3CCCCC3)c2n1 [DIPYRIDAMOLE] | Compound metabolized | Compound metabolized | Compound NOT metabolized | Compound metabolized | Compound metabolized | Compound metabolized | Compound metabolized | Compound NOT metabolized | Compound NOT metabolized | Compound metabolized | Compound metabolized | Compound metabolized | Compound NOT metabolized | Compound NOT metabolized | Compound metabolized | Compound metabolized | Compound NOT metabolized | Compound metabolized | Compound NOT metabolized | Compound metabolized
Nc1nnc(-c2cccc(Cl)c2Cl)c(N)n1 [LAMOTRIGINE] | Compound NOT metabolized | Compound NOT metabolized | Compound metabolized | Compound metabolized | Compound NOT metabolized | Compound NOT metabolized | Compound NOT metabolized | Compound NOT metabolized | Compound NOT metabolized | Compound metabolized | Compound NOT metabolized | Compound NOT metabolized | Compound NOT metabolized | Compound NOT metabolized | Compound NOT metabolized | Compound NOT metabolized | Compound NOT metabolized | Compound NOT metabolized | Compound NOT metabolized | Compound NOT metabolized
O=C(NC(Cc1cc(=O)[nH]c2ccccc12)C(=O)O)c1ccc(Cl)cc1 (stereo not given) [REBAMIPIDE] | Compound metabolized | Compound NOT metabolized | Compound NOT metabolized | Compound metabolized | Compound NOT metabolized | Compound NOT metabolized | Compound NOT metabolized | Compound NOT metabolized | Compound NOT metabolized | Compound NOT metabolized | Compound NOT metabolized | Compound NOT metabolized | Compound NOT metabolized | Compound NOT metabolized | Compound NOT metabolized | Compound metabolized | Compound NOT metabolized | Compound NOT metabolized | Compound metabolized | Compound metabolized

Reference: ChEMBL document CHEMBL5724914, “Linking interpersonal differences in gut microbiota composition and drug biotransformation activity” (2024)
